# From article PMC11527646, “Pharmacological blockade of the mast cell MRGPRX2 receptor supports investigation of its relevance in skin disorders” (Frontiers in Immunology, 2024)
# “Also recorded” adds a separate entry of the source. Read-outs that look alike come from different tables or passages of the source. Bridge positions count the residues as written; N and C are the ends. Peptide text beside a SMILES is read from it.
# What was measured:
# [1] = molecular target: T1, MRGPRX2 (Homo sapiens, UniProt Q96LB1); test: LAD2 mast cell degranulation (β-hexosaminidase release), MRGPRX2 ligand-mediated; type: cell-based; design: human mast cells expressing endogenous MRGPRX2; endogenous in cells; […]
# T1 sequence (Q96LB1 1-330): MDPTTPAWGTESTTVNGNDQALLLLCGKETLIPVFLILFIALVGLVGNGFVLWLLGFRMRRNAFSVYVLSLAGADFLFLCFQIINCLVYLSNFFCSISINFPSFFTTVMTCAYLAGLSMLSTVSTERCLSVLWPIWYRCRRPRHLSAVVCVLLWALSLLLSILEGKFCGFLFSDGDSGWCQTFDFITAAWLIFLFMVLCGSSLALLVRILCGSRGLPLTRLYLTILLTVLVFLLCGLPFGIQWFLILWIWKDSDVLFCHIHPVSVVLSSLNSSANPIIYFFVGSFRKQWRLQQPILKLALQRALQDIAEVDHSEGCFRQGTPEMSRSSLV
# Method: Two different in vitro human mast cell systems were studied: (a) a human mast cell line, LAD2, established from a patient with mast cell sarcoma; and (b) mast cells freshly isolated from human skin. MRGPRX2 antagonist IC50 values were determined in the LAD2 mast cell degranulation assay using approximately EC80 concentrations for five different MRGPRX2 activating ligands (see Supplementary Figure 1 ).
# [2] = system: human basophils; test: Histamine release from human blood basophils (buffy coats); type: cell-based; conditions: 0.2–25 μM; non-allergic or allergic donors, with or without anti-IgE pre-incubation
# Method: Blood bank buffy coats were screened for reactions against 10 inhalant allergens (grass, birch, mugwort, cat, dog, horse, Dermatophagoides pteronyssinus, Dermatophagoides farinae, Cladosporium, and Alternaria) and 10 food allergens (milk, egg, wheat, peanut, hazelnut, kiwi, cod fish, shrimp, celeriac, and soy). Five buffy coats with histamine release > 30 ng/mL to any of the tested allergens and with a histamine release to blood with anti-IgE > 30 ng/mL were included as allergic donors. Further, five buffy coats with histamine release < 10 ng/mL to any of the above-mentioned allergens and with a histamine release to blood with anti-IgE > 25 ng/mL were included as non-allergic donors.
# The buffy coats were pre-incubated for 30 min at 37°C with either buffer or anti-human IgE in concentrations ranging from 0.04 µg/mL to 5 µg/mL. […] Following pre-incubation with anti-IgE and incubation with SP, released histamine was quantified as previously described ([14]). Briefly, histamine was bound to a glass fiber matrix at the bottom of microtiter plates and after a series of wash steps coupled to ortho-phtaldialdehyde before being detected fluorometrically in the Histareader™ 501 (RefLab ApS, Copenhagen, Denmark). […]
# Anti-IgE pre-stimulation. Histamine release measured in blood samples pre-incubated with various concentrations of anti-lgE for 30 mins, followed by 1 hour incubation with various […]
smiles,measurement,setting,value
"C[C@@H](O)[C@@H]1NC(=O)[C@H](CCCCN)NC(=O)[C@H](Cc2c[nH]c3ccccc23)NC(=O)[C@H](Cc2ccccc2)NC(=O)[C@H](Cc2ccccc2)NC(=O)[C@H](CC(N)=O)NC(=O)[C@H](CCCCN)NC(=O)[C@@H](NC(=O)[C@@H]2CCCN2)CSSC[C@@H](C(=O)N[C@@H](CCCCN)C(=O)O)NC(=O)[C@H](CO)NC(=O)[C@H](CO)NC(=O)[C@H](Cc2ccccc2)NC1=O [Cortistatin 14, reference compound] (H-PCKNFFWKTFSSCK-OH; disulfide 2-13; N-terminus and C-terminus assumed)",EC50,"[1]; representative dose response curves, read-out: LAD2 mast cell degranulation agonist EC50",67 nM
"CC[C@H](C)[C@H](NC(=O)CNC(=O)[C@H](CC(=O)O)NC(=O)[C@H](CO)NC(=O)[C@@H](N)Cc1cnc[nH]1)C(=O)N[C@@H](Cc1ccccc1)C(=O)N[C@H](C(=O)N[C@@H](CC(=O)O)C(=O)N[C@@H](CO)C(=O)N[C@@H](Cc1ccc(O)cc1)C(=O)N[C@@H](CO)C(=O)N[C@@H](CCCNC(=N)N)C(=O)N[C@@H](Cc1ccc(O)cc1)C(=O)N[C@@H](CCCNC(=N)N)C(=O)N[C@@H](CCCCN)C(=O)N[C@@H](CCC(N)=O)C(=O)N[C@@H](CCSC)C(=O)N[C@@H](C)C(=O)N[C@H](C(=O)N[C@@H](CCCCN)C(=O)N[C@@H](CCCCN)C(=O)N[C@@H](Cc1ccc(O)cc1)C(=O)N[C@@H](CC(C)C)C(=O)N[C@@H](C)C(=O)N[C@@H](C)C(=O)N[C@H](C(=O)N[C@@H](CC(C)C)C(N)=O)C(C)C)C(C)C)[C@@H](C)O [PACAP-27, reference compound]",EC50,[1],218 nM
CSCC[C@H](NC(=O)[C@H](CC(C)C)NC(=O)CNC(=O)[C@H](Cc1ccccc1)NC(=O)[C@H](Cc1ccccc1)NC(=O)[C@H](CCC(N)=O)NC(=O)[C@H](CCC(N)=O)NC(=O)[C@@H]1CCCN1C(=O)[C@H](CCCCN)NC(=O)[C@@H]1CCCN1C(=O)[C@@H](N)CCCN=C(N)N)C(N)=O [Substance P],Histamine release response of basophils,[2],no SP response could be detected
"COc1ccc(-n2nnnc2C(F)(F)F)cc1CN[C@H]1CCCN[C@H]1c1ccccc1 [vofopitant, reference compound]",Influence on Substance P-mediated mast cell degranulation,"[1]; Substance P 1 μM, β-hexosaminidase release, n = 8",has no influence; also recorded: unaltered
